Assays:
Format in all cases: functional
Tobacco mosaic virus [1] = assay: In vivo antiviral activity against Tobacco mosaic virus (TMV) inoculated right side of Nicotiana. tabacum L. leaves assessed as protection effect at 100 ug/mL preincubated 12 hr before viral challenge measured after 3 to 4 days
Tobacco mosaic virus [2] = assay: Antiviral activity against Tobacco mosaic virus (TMV) inoculated in 5-6 growth stage leaf assessed as inhibition effect at 500 ug/mL at 25 degC after 72 hr by half-leaf method
Tobacco mosaic virus [3] = assay: In vivo antiviral activity against Tobacco mosaic virus (TMV) inoculated left side of Nicotiana. tabacum L. leaves assessed as inactivation effect at 100 ug/mL co-incubated with virus measured after 3 to 4 days
Tobacco mosaic virus [4] = assay: In vivo antiviral activity against Tobacco mosaic virus (TMV) inoculated right side of Nicotiana. tabacum L. leaves assessed as protection effect at 500 ug/mL preincubated 12 hr before viral challenge measured after 3 to 4 days
Tobacco mosaic virus [5] = assay: Antiviral activity against Tobacco mosaic virus (TMV) inoculated in 5-6 growth stage leaf assessed as inhibition effect at 100 ug/mL at 25 degC after 72 hr by half-leaf method
Tobacco mosaic virus [6] = assay: In vivo antiviral activity against Tobacco mosaic virus (TMV) inoculated left side of Nicotiana. tabacum L. leaves assessed as inactivation effect at 500 ug/mL co-incubated with virus measured after 3 to 4 days
Tobacco mosaic virus [7] = assay: In vivo antiviral activity against Tobacco mosaic virus (TMV) pre-inoculated Nicotiana. tabacum L. leaves assessed as curative effect at 100 ug/mL measured after 3 to 4 days
Tobacco mosaic virus [8] = assay: In vivo antiviral activity against Tobacco mosaic virus (TMV) pre-inoculated Nicotiana. tabacum L. leaves assessed as curative effect at 500 ug/mL measured after 3 to 4 days

SMILES | inhibition in vivo at 100 µg/mL (Tobacco mosaic virus [1]) [%] | inhibition at 500 µg/mL (Tobacco mosaic virus [2]) [%] | inhibition in vivo at 100 µg/mL (Tobacco mosaic virus [3]) [%] | inhibition in vivo at 500 µg/mL (Tobacco mosaic virus [4]) [%] | inhibition at 100 µg/mL (Tobacco mosaic virus [5]) [%] | inhibition in vivo at 500 µg/mL (Tobacco mosaic virus [6]) [%] | inhibition in vivo at 100 µg/mL (Tobacco mosaic virus [7]) [%] | inhibition in vivo at 500 µg/mL (Tobacco mosaic virus [8]) [%]
COc1ccc2c3c(c4cc(OC)c(OC)cc4c2c1)[C@H](NC(=O)C(C)(C)C)[C@@H]1CCCN1C3 | 24.7 | 48.3 | 23.6 | 52.6 | 28.7 | 37.2 | 31.4 | 45.6
COc1cc2c3c(c4cc(OC)c(OC)cc4c2cc1OC)[C@H](NC(=O)C(C)(C)C)[C@@H]1CCCN1C3 | 22 | 42.4 | 16.9 | 38.9 | 23.1 | 28.5 | 26.3 | 38.5
CCCCN[C@@H]1c2c(c3cc(OC)c(OC)cc3c3cc(OC)ccc23)CN2C(=O)CC[C@@H]12 | 28.6 | 45.7 | 27.6 | 54.8 | 20 | 50 | 24.3 | 52.5
CCCCN[C@@H]1c2c(c3cc(OC)c(OC)cc3c3cc(OC)ccc23)CN2CCC[C@H]12 | 27.4 | 47.6 | 23.7 | 57.6 | 24.3 | 53.5 | 20.5 | 58.2
CCCCN[C@@H]1c2c(c3cc(OC)c(OC)cc3c3cc(OC)ccc23)CN2C(=O)CC[C@H]12 | 20.5 | 38.2 | 25.4 | 48.2 | 17.5 | 49.4 | 23.6 | 41.7
COc1ccc2c3c(c4cc(OC)c(OC)cc4c2c1)CN1CCC[C@H]1[C@H]3N | 38.9 | 72.4 | 32.8 | 71.6 | 45 | 70.3 | 48.2 | 68
CCCCN[C@H]1c2c(c3cc(OC)c(OC)cc3c3cc(OC)ccc23)CN2C(=O)CC[C@@H]12 | 26.2 | 52.5 | 25.6 | 50.3 | 30 | 47.2 | 20.3 | 47.5
CCCCN[C@H]1c2c(c3cc(OC)c(OC)cc3c3cc(OC)ccc23)CN2CCC[C@@H]12 | 34.9 | 62.3 | 30 | 65.5 | 28.4 | 58.9 | 25.9 | 60.2
CCCCN[C@@H]1c2c(c3cc(OC)c(OC)cc3c3cc(OC)ccc23)CN2CCC[C@@H]12 | 36.8 | 72.3 | 32.6 | 69.5 | 41.2 | 64.2 | 30.4 | 66.6
CCCCN[C@H]1c2c(c3cc(OC)c(OC)cc3c3cc(OC)ccc23)CN2C(=O)CC[C@H]12 | 17.6 | 44.1 | 19.8 | 46.8 | 20.4 | 43.3 | 14.3 | 36.2
CNCC(=O)N[C@@H](CO)C(=O)N[C@H]1[C@H](O)[C@@H](O)[C@H](n2ccc(N)nc2=O)O[C@@H]1C(N)=O [NINGNANMYCIN] | 25.2 | 70.2 | 37.7 | 66.6 | 23.9 | 68.5 | 18.9 | 56
COc1cc2c3c(c4cc(OC)c(OC)cc4c2cc1OC)CN1CCCC1C3 (racemic) [(+/-)-TYLOPHORINE] | 31.5 | 51.8 | 33.3 | 56.6 | 27.6 | 46.5 | 30.7 | 52
COc1ccc2c3c(c4cc(OC)c(OC)cc4c2c1)[C@H](N)[C@@H]1CCCN1C3 | 30.1 | 48.2 | 32.1 | 44.4 | 32.5 | 41.9 | 29.6 | 42.3
NC(=O)c1ncn([C@@H]2O[C@H](CO)[C@@H](O)[C@H]2O)n1 [RIBAVIRIN] | 7.5 | 41 | 9.8 | 38.9 | 19.6 | 33.8 | 8.2 | 36.7
COc1ccc2c3c(c4cc(OC)c(OC)cc4c2c1)CN1CCC[C@H]1[C@H]3NC(=O)C(C)(C)C | 23.6 | 49.1 | 15.4 | 43.1 | 30 | 31.9 | 27.7 | 45
COc1cc2c3c(c4cc(OC)c(OC)cc4c2cc1OC)[C@H](NC(C)=O)[C@@H]1CCCN1C3 | 29.3 | 34.7 | 31.1 | 41.5 | 21.1 | 46.4 | 25.3 | 37.4
CCCCN[C@H]1c2c(c3cc(OC)c(OC)cc3c3cc(OC)ccc23)CN2CCC[C@H]12 | 20 | 51.4 | 15.2 | 54.2 | 19.9 | 42.3 | 16.7 | 50.2
COc1cc2c3c(c4cc(OC)c(OC)cc4c2cc1OC)[C@H](N)[C@@H]1CCCN1C3 | 7.3 | 12.9 | 11.2 | 18.4 | 0 | 17.6 | 0 | 15.5
COc1ccc2c3c(c4cc(OC)c(OC)cc4c2c1)CN1CCC[C@H]1[C@H]3NC(C)=O | 15.3 | 23.5 | 16.7 | 28.6 | 7.4 | 38.1 | 0 | 25.2
